Laboratory results published in patent US20250009819A1, “NOVEL PROBIOTICS AND USE THEREOF” (PBLBIOLAB CO., LTD., priority 2021, published 2025).

Tests used:
Format in all cases: in vivo, C57BL/6 male mice
[1] = tested on: animals with LPS-induced cognitive impairment; experiment: Animals with LPS-induced cognitive impairment: improvement effect in spleen; details: LPS-treated mice, 1×10^9 CFU/mouse or sulfasalazine 50 mg/kg once a day for 5 days; for Foxp3 (fold change) / Tbet (fold change) / Tbet/Foxp3: spleen qPCR; for IFN-γ/IL-10 / IL-10 / Interferon (IFN)-γ / NK cell cytoxicity (%) / Phagocytosis (%) / TNF-α / TNF-α/IL-10: spleen
Procedure: (§1) Hippocampus, colon, and spleen tissues were homogenized by adding 1 ml of RIPA buffer (Gibco) containing protease inhibitor cocktail and centrifuged at 4° C., 13000 rpm for 15 min to obtain supernatant. Indicators of this supernatant were measured using an ELISA kit (Ebioscience).
mRNA was isolated from spleen tissue using the RNA Isolation Kit: RNeasy Mini Kit (QIAGEN), converted to cDNA, and qPCR was performed to measure the expression rates of Tbet, Foxp3, and glyceraldehyde 3-phosphate dehydrogenase (GAPDH). The reaction product was first treated at 95° C. for 30 seconds, followed by 38 cycles of 5 seconds at 95° C. and 30 seconds at 72° C. for analysis.
C57BL/6 male mice (5 weeks old, 19-21 g) were divided (6 mice in each group) and acclimatized to the laboratory for 1 week. To induce intestinal and brain diseases, mice were intraperitoneally administered Escherichia coli-derived LPS (10 μg/kg) once daily for 5 days. […] Experimental animals in the normal group were orally administered with a physiological saline solution, which was used to suspend lactic acid bacteria. The day following the conclusion of sample administration, the experimental animals were sacrificed, and samples from the brain hippocampus, colon, and spleen were collected. In the Hippocampus, inflammatory indicators, such as IFN-γ, TNF-α, and IL-10, were measured using ELISA. In the colon, intestinal length and inflammatory indicators, such as IFN-γ, TNF-α, and IL-10, were measured. In the spleen, Th1 cells and Treg cells were measured by FACS (Fluorescence-Activated Cell Sorting).

[2] = tested on: immunosuppressed animals induced by anticancer drug (cyclophosphamide); experiment: Immunosuppressed animals induced by cyclophosphamide: colitis improvement (colon); details: cyclophosphamide (CP)-treated mice, 1×10^9 CFU/mouse orally once a day for 5 days
Procedure: (§2) To 100 mg of colon tissue, 200 μl of 10 mM potassium phosphate buffer (pH 7.0) containing 0.5% hexadecyl trimethyl ammonium bromide was added and homogenized. Then, the supernatant was obtained by centrifugation for 10 minutes at 4° C. and 10,000 g. A volume of 50 μl of the supernatant was added to 0.95 mk of reaction solution (containing 1.6 mM tetramethyl benzidine and 0.1 mM H2O2), reacted at 37° C., and absorbance was monitored over time at 650 nm.
as §1
(§3) C57BL/6 male mice (5 weeks old, 19-21 g) were divided (6 mice in each group) and acclimatized to the laboratory for 1 week. To induce intestinal and brain diseases, the mice were administered with cyclophosphamide (CP, 150 mg/kg, dissolved in physiological saline) for 1 day, rested for 1 day, and then administered intraperitoneally the next day. Meanwhile, the normal group was administered intraperitoneally with 0.1 ml of physiological saline. […] The day following the conclusion of sample administration, the experimental animals were sacrificed, and samples from the brain hippocampus, colon, and spleen were collected. In the Hippocampus, inflammatory indicators, such as IFN-γ, TNF-α, and IL-10, were measured using ELISA. In the colon, intestinal length and inflammatory indicators, such as IFN-γ, TNF-α, and IL-10, were measured. In the spleen, Th1 cells and Treg cells were measured by FACS (Fluorescence-Activated Cell Sorting).

[3] = tested on: immunosuppressed animals induced by anticancer drug (cyclophosphamide); experiment: Immunosuppressed animals induced by cyclophosphamide: cognitive improvement, hippocampus indicators; details: cyclophosphamide (CP)-treated mice, 1×10^9 CFU/mouse orally once a day for 5 days; for IFN-γ/IL-10 / IL-10 / Interferon (IFN)-γ / TNF-a/IL-10 / TNF-α: hippocampus
Procedure: as §1
The Y-shaped maze measurement device is shaped like an alphabetical Y with three arms extending from it, each arm being 25 cm long, 14 cm high, 5 cm wide, and positioned at the same angle. At the end of one arm of the Y-shaped maze, the animal was placed with its head facing out and allowed to freely navigate the arm for 8 minutes. The animal's movements were recorded, and reported as arm entries when the animal entered the arm with its hind paw, and the animal's movement was represented by an alternation, which was defined as one alternation when the animal passed through the three arms in succession. The amount of spontaneous alternation behavior was expressed as a percentage between the actual number of alternations and the maximum possible number of alternations (i.e., the total number of […] minus 2).
The experiment was conducted in a box (40×40×40 cm) made so that the outside could not be seen from the inside. Two objects (A, A′) of the same shape and size were fixedly disposed in a box and the mouse was relocated to start from the center of the box. Then, the number of times the mouse made contact with the two objects was recorded for 10 minutes. After 24 hours, one of the two objects was replaced with a new object (A, B). Then, one original object and one new object were prepared, and the animal's exploration time was measured.
as §3

[4] = tested on: animals with antibiotic-induced gut microbiota imbalance; experiment: Animals with antibiotic (ampicillin)-induced gut microbiota imbalance: colitis improvement (colon); details: ampicillin (AP)-treated mice, 1×10^9 CFU/mouse orally once a day for 5 days
Procedure: as §2, §1
(§4) C57BL/6 male mice (5 weeks old, 19-21 g) were divided (6 mice in each group) and acclimatized to the laboratory for 1 week. To induce intestinal and brain diseases, the mice were orally administered with ampicillin (AP, 100 mg/kg, dissolved in physiological saline) for 3 days. Meanwhile, the normal group was orally administered with 0.1 ml of physiological saline. […] The day following the conclusion of sample administration, the experimental animals were sacrificed, and samples from the brain hippocampus, colon, and spleen were collected. In the Hippocampus, inflammatory indicators, such as IFN-γ, TNF-α, and IL-10, were measured using ELISA. In the colon, intestinal length and inflammatory indicators, such as IFN-γ, TNF-α, and IL-10, were measured. In the spleen, Th1 cells and Treg cells were measured by FACS (Fluorescence-Activated Cell Sorting), and in feces, endotoxin (LPS) and gut microbial communities were measured.

[5] = tested on: gut microbiota; experiment: Gut microbiota analysis in animals with ampicillin-induced gut microbiota imbalance (FIG. 1); details: feces, ampicillin-treated mice, result in words
Procedure: First, DNA from feces was isolated using the QIAamp DNA stool mini kit (Qiagen, Germany), pyrosequencing was performed by amplifying barcoded primers (V4 region of the bacterial 16S rRNA gene) to generate amplicons, and 16S rDNA was analyzed by Illumina iSeq 100 (San Diego, CA) to analyze occupancy.
as §4

Substance	Foxp3 (fold change) [1] [fold change]	Tbet (fold change) [1] [fold change]	Tbet/Foxp3 [1]	IFN-γ/IL-10 [1]	IL-10 [1] [pg/mg]	Interferon (IFN)-γ [1] [pg/mg]	NK cell cytoxicity (%) [1] [%]	Phagocytosis (%) [1] [%]	TNF-α [1] [pg/mg]	TNF-α/IL-10 [1]	Colon (cm) [2] [cm]	IFN-γ/IL-10 [2]	IL-10 [2] [pg/mg]	Interferon (IFN)-γ [2] [pg/mg]	MPO activity [2] [μUnit/mg]	TNF-a/IL-10 [2]	TNF-α [2] [pg/mg]	Exoporation (%) (in NOR task) [3]	Spontaneous alteration (%) (in Y-maze task) [3]	IFN-γ/IL-10 [3]	further results
Lactobacillus rhamnosus NK210	1.07	1.58	1.55	1.15	10.49	11.92	7.78	36.01	4.00	0.38	4.98	3.05	9.65	28.79	4.79	2.19	20.60	78.71	70.94	0.59	IL-10 [3]: 43.29 pg/mg; Interferon (IFN)-γ [3]: 25.30 pg/mg; TNF-a/IL-10 [3]: 0.24; TNF-α [3]: 10.44 pg/mg; Colon (cm) [4]: 5.28 cm; IFN-γ/IL-10 [4]: 0.31; IL-10 [4]: 21.31 pg/mg; Interferon (IFN)-γ [4]: 5.94 pg/mg; MPO activity [4]: 11.60 μUnit/mg; TNF-a/IL-10 [4]: 1.43; TNF-α [4]: 22.86 pg/mg; imbalance in the beta diversity, Proteobacteria, and Bacteroidetes of gut microbiota [5]: improved to a balanced form
Bifidobacterium longum NK219	1.32	1.27	1.05	1.32	8.71	11.29	6.93	34.55	4.00	0.47	4.95	3.32	13.00	38.64	4.62	2.12	26.73	78.34	71.26	0.44	IL-10 [3]: 53.74 pg/mg; Interferon (IFN)-γ [3]: 23.48 pg/mg; TNF-a/IL-10 [3]: 0.20; TNF-α [3]: 10.91 pg/mg; Colon (cm) [4]: 5.45 cm; IFN-γ/IL-10 [4]: 0.26; IL-10 [4]: 26.75 pg/mg; Interferon (IFN)-γ [4]: 5.84 pg/mg; MPO activity [4]: 14.76 μUnit/mg; TNF-a/IL-10 [4]: 1.16; TNF-α [4]: 28.27 pg/mg; imbalance in the beta diversity, Proteobacteria, and Bacteroidetes of gut microbiota [5]: improved to a balanced form
